Measured values taken from patent US20240300932A1, “N-PHENYLIMINE DERIVATIVE AND PREPARATION METHOD AND USE THEREOF” (Guizhou University, priority 2023, published 2024).

What was measured:
Experiment in all cases: Post-emergence herbicidal activity test (stem and leaf spray, pot culture)
Type in all cases: in vivo
Conditions in all cases: 3 weeks after spraying
[1] = test system: Trifoliumre pensL.
Protocol: (1) Post-Emergence Stem and Leaf Spray Treatment: The weeds were cultivated in a 180 mm×140 mm plastic nutrient pot by a pot-culture method, placed in an enamel tray, and the plastic nutrient pots were filled with surface soil (⅘ of a depth) collected from a farmland and air-dried and sieved, and a soil humidity was controlled at 20% in the initial stage. Weed seeds with plump and uniform grains were selected, soaked in warm water at 25° C. for 6 h, and germinated in a biochemical incubator (dark) at 28° C. The freshly exposed weed seeds were evenly placed on the soil surface, and then covered with 0.5 cm to 1 cm of soil according to the size of the seeds. The weeds are cultivated in a controlled sunlight greenhouse at 20° C. to 30° C., under natural light, and a relative humidity of 57% to 72%. The soil was loam, including 1.63% of organic matters, with a pH value of 7, 84.3 mg/kg of alkaline nitrogen, 38.5 mg/kg of available phosphorus, and 82.1 mg/kg of available potassium. Each treatment was repeated 2 times, each treatment included 12 pots, and 20 weed seeds were sown in each pot. Pesticide was applied in the test for 1 time in total. When the weeds grew to 1.5- to 2-leaf stage, thinning was conducted, with 10 weeds in each pot, and 30 weeds were kept in each treatment. The cultivated weeds were placed on trays with an area of 0.1 m^2, and stems and leaves were sprayed with a sprayer. After applying a pesticide, the pesticide applied weeds were moved into a greenhouse for routine cultivation. 2 weeks after sowing, the test plants were treated at the 2- to 3-leaf stage: the compounds of the present disclosure for testing were dissolved in acetone separately, and added with Tween 80, an emulsifiable oil of 1.5 liters/ha methyl oleate was added as a synergist, and an obtained mixture was diluted with certain water to a certain concentration solution. The solution was sprayed onto the plants using a spray tower. After spraying, the weeds were cultivated in the greenhouse for 3 weeks, and the experimental effects on the weeds were counted. The effective concentrations of the compounds were 10 g/mu, 5 g/mu, and 2.5 g/mu, the experiment was repeated three times, and an average result was taken.

[2] = test system: Amaranthus retroflexus
Protocol: (§1) The weeds were cultivated in a 180 mm×140 mm plastic nutrient pot by a pot-culture method, placed in an enamel tray, and the plastic nutrient pots were filled with surface soil (⅘ of a depth) collected from a farmland and air-dried and sieved, and a soil humidity was controlled at 20% in the initial stage. Weed seeds with plump and uniform grains were selected, soaked in warm water at 25° C. for 6 h, and germinated in a biochemical incubator (dark) at 28° C. The freshly exposed weed seeds were evenly placed on the soil surface, and then covered with 0.5 cm to 1 cm of soil according to the size of the seeds. The weeds are cultivated in a controlled sunlight greenhouse at 20° C. to 30° C., under natural light, and a relative humidity of 57% to 72%. The soil was loam, including 1.63% of organic matters, with a pH value of 7, 84.3 mg/kg of alkaline nitrogen, 38.5 mg/kg of available phosphorus, and 82.1 mg/kg of available potassium.
(§2) Each treatment was repeated 2 times, each treatment included 12 pots, and 20 weed seeds were sown in each pot. Pesticide was applied in the test for 1 time in total. When the weeds grew to 1.5- to 2-leaf stage, thinning was conducted, with 10 weeds in each pot, and 30 weeds were kept in each treatment.
(§3) The cultivated weeds were placed on trays with an area of 0.1 m^2, and stems and leaves were sprayed with a sprayer. After applying a pesticide, the pesticide applied weeds were moved into a greenhouse for routine cultivation.
(§4) 2 weeks after sowing, the test plants were treated at the 2- to 3-leaf stage: the compounds of the present disclosure for testing were dissolved in acetone separately, and added with Tween 80, an emulsifiable oil of 1.5 liters/ha methyl oleate was added as a synergist, and an obtained mixture was diluted with certain water to a certain concentration solution. The solution was sprayed onto the plants using a spray tower. After spraying, the weeds were cultivated in the greenhouse for 3 weeks, and the experimental effects on the weeds were counted. The effective concentrations of the compounds were 10 g/mu, 5 g/mu, and 2.5 g/mu, the experiment was repeated three times, and an average result was taken.
(§5) The activity level criteria for plant destruction (i.e. growth control rate) are as follows: • Grade 5: the growth control rate is greater than or equal to 85%; • Grade 4: the growth control rate is greater than or equal to 60% and less than 85%; • Grade 3: the growth control rate is greater than or equal to 40% and less than 60%; • Grade 2: the growth control rate is greater than or equal to 20% and less than 40%; • Grade 1: the growth control rate is greater than or equal to 5% and less than 20%; and • Grade 0: the growth control rate is less than 5%.
(§6) The growth control rate is a fresh weight control rate.

[3] = test system: Portulaca oleracea
Protocol: as §1, §2, §3, §4, §5, §6

[4] = test system: Echinochloa crusgalli
Protocol: as §1, §2, §3, §4, §5, §6

[5] = test system: Setaria viridis
Protocol: as §1, §2, §3, §4, §5, §6

[6] = test system: Abutilon theophrasti
Protocol: as §1, §2, §3, §4, §5, §6

Row | Compound | Post-emergence herbicidal activity, Trifoliumre pensL. (grade) ([1]; dosage 2.5 g/mu) | Post-emergence herbicidal activity, Trifoliumre pensL. (grade) ([1]; dosage 5 g/mu) | Post-emergence herbicidal activity, Trifoliumre pensL. (grade) ([1]; dosage 10 g/mu) | Post-emergence herbicidal activity, A. retroflexus (grade) ([2]; dosage 2.5 g/mu) | Post-emergence herbicidal activity, A. retroflexus (grade) ([2]; dosage 5 g/mu) | Post-emergence herbicidal activity, A. retroflexus (grade) ([2]; dosage 10 g/mu) | Post-emergence herbicidal activity, P. oleracea (grade) ([3]; dosage 2.5 g/mu) | Post-emergence herbicidal activity, P. oleracea (grade) ([3]; dosage 5 g/mu) | Post-emergence herbicidal activity, P. oleracea (grade) ([3]; dosage 10 g/mu) | Post-emergence herbicidal activity, E. crusgalli (grade) ([4]; dosage 2.5 g/mu) | Post-emergence herbicidal activity, E. crusgalli (grade) ([4]; dosage 5 g/mu) | Post-emergence herbicidal activity, E. crusgalli (grade) ([4]; dosage 10 g/mu) | Post-emergence herbicidal activity, S. viridis (grade) ([5]; dosage 2.5 g/mu) | Post-emergence herbicidal activity, S. viridis (grade) ([5]; dosage 5 g/mu) | Post-emergence herbicidal activity, S. viridis (grade) ([5]; dosage 10 g/mu) | Post-emergence herbicidal activity, A. theophrasti (grade) ([6]; dosage 2.5 g/mu) | Post-emergence herbicidal activity, A. theophrasti (grade) ([6]; dosage 5 g/mu) | Post-emergence herbicidal activity, A. theophrasti (grade) ([6]; dosage 10 g/mu)
1 | O=C1C2=C(CCCC2)C(=O)N1c1cc(OCc2nc(-c3ccccc3Br)no2)c(Cl)cc1F [Compound A4] | 4 (Grade 4: the growth control rate is greater than or equal to 60% and less than 85%) | 5 (Grade 5: the growth control rate is greater than or equal to 85%) | 5 (Grade 5: the growth control rate is greater than or equal to 85%) | 5 (Grade 5: the growth control rate is greater than or equal to 85%) | 5 (Grade 5: the growth control rate is greater than or equal to 85%) | 5 (Grade 5: the growth control rate is greater than or equal to 85%) | 4 (Grade 4: the growth control rate is greater than or equal to 60% and less than 85%) | 5 (Grade 5: the growth control rate is greater than or equal to 85%) | 5 (Grade 5: the growth control rate is greater than or equal to 85%) | 1 (Grade 1: the growth control rate is greater than or equal to 5% and less than 20%) | 2 (Grade 2: the growth control rate is greater than or equal to 20% and less than 40%) | 3 (Grade 3: the growth control rate is greater than or equal to 40% and less than 60%) | 2 (Grade 2: the growth control rate is greater than or equal to 20% and less than 40%) | 3 (Grade 3: the growth control rate is greater than or equal to 40% and less than 60%) | 4 (Grade 4: the growth control rate is greater than or equal to 60% and less than 85%) | 5 (Grade 5: the growth control rate is greater than or equal to 85%) | 5 (Grade 5: the growth control rate is greater than or equal to 85%) | 5 (Grade 5: the growth control rate is greater than or equal to 85%)
2 | O=C1C2=C(CCCC2)C(=O)N1c1cc(OCc2nc(-c3ccc(Cl)cc3)no2)c(Cl)cc1F [Compound A5] | 5 (Grade 5: the growth control rate is greater than or equal to 85%) | 5 (Grade 5: the growth control rate is greater than or equal to 85%) | 5 (Grade 5: the growth control rate is greater than or equal to 85%) | 5 (Grade 5: the growth control rate is greater than or equal to 85%) | 5 (Grade 5: the growth control rate is greater than or equal to 85%) | 5 (Grade 5: the growth control rate is greater than or equal to 85%) | 5 (Grade 5: the growth control rate is greater than or equal to 85%) | 5 (Grade 5: the growth control rate is greater than or equal to 85%) | 5 (Grade 5: the growth control rate is greater than or equal to 85%) | 1 (Grade 1: the growth control rate is greater than or equal to 5% and less than 20%) | 2 (Grade 2: the growth control rate is greater than or equal to 20% and less than 40%) | 3 (Grade 3: the growth control rate is greater than or equal to 40% and less than 60%) | 2 (Grade 2: the growth control rate is greater than or equal to 20% and less than 40%) | 3 (Grade 3: the growth control rate is greater than or equal to 40% and less than 60%) | 4 (Grade 4: the growth control rate is greater than or equal to 60% and less than 85%) | 5 (Grade 5: the growth control rate is greater than or equal to 85%) | 5 (Grade 5: the growth control rate is greater than or equal to 85%) | 5 (Grade 5: the growth control rate is greater than or equal to 85%)
